In patent US9376418B2, “Substituted pyridine spleen tyrosine kinase (SYK) inhibitors” (Merck Sharp & Dohme Corp., priority 2012, dated 2016):

Biological target: T1, recombinant human GST-SYK (Homo sapiens, UniProt P43405)
T1 construct: purchased Carna Biosciences 08-176
Assay: Homogeneous Time-Resolved Fluorescence (HTRF) assay for the recombinant human Syk enzyme
Type: biochemical
Settings: HTRF assay, recombinant human GST-SYK; IC50 given as class symbols; read-out: rhSYK Activity
Procedure, shortened: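 Phosphorylation of a biotinylated Syk substrate peptide (250 nM) was run for 45 min at room temperature with 25 μM ATP and 5 mM Mg. It followed a 10-min preincubation of GST-hSYK ([…]) with compound in 15 mM Tris-HCl pH 7.5, 2 mM DTT. Product was detected by time-resolved fluorescence using a europium anti-phosphotyrosine antibody plus SA-APC in EDTA-containing quench buffer.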

`Cc1cc(Nc2nccc(C(F)(F)F)n2)cc(-c2ccc(NCCCC(=O)O)nc2)c1` [Example 7.102, 4-{[5-(3-methyl-5-{[4-(trifluoromethyl)pyrimidin-2-yl]amino}phenyl)pyridin-2-yl]amino}butanoic acid] and `Cc1cc(Nc2nccc(C(F)(F)F)n2)cc(-c2ccc(NCC(=O)O)nc2)c1` [Example 7.87, N-[5-(3-methyl-5-{[4-(trifluoromethyl)pyrimidin-2-yl]amino}phenyl)pyridin-2-yl]glycine] cannot be ordered by IC50: < 100 nM for the first, < 100 nM for the second.

First: Cc1cc(Nc2nccc(C)n2)cc(-c2cncc(CCC(=O)O)c2)c1 [Example 2.90, 3-(5-{3-methyl-5-[(4-methylpyrimidin-2-yl)amino]phenyl}pyridin-3-yl)propanoic acid]
Second: Cc1cc(Nc2nccc(C)n2)cc(-c2ccc(CCC(=O)O)nc2)c1 [Example 2.89, 3-(5-{3-methyl-5-[(4-methylpyrimidin-2-yl)amino]phenyl}pyridin-2-yl)propanoic acid]
The IC50 of the first is higher: 100 to 1000 nM for the first, < 100 nM for the second. The second is the more potent here.

`Cc1cc(Nc2nccc(C(F)(F)F)n2)cc(-c2ccnc(N3CC(O)C3)c2)c1` [Example 15.53, 1-[4-(3-methyl-5-{[4-(trifluoromethyl)pyrimidin-2-yl]amino}phenyl)pyridin-2-yl] azetidin-3-ol] and `Cc1cc(Nc2nccc(C(F)(F)F)n2)cc(-c2ccnc(N3CC(C)NC(C)C3)c2)c1` (centres unmarked) [Example 15.71, N-{3-[2-(3,5-dimethylpiperazin-1-yl)pyridin-4-yl]-5-methylphenyl}-4-(trifluoromethyl)pyrimidin-2-amine] cannot be ordered by IC50: < 100 nM for the first, < 100 nM for the second.

`Cc1cc(Nc2nccc(C(F)(F)F)n2)cc(-c2ccnc(NCCN)c2)c1` [Example 15.41, N-[4-(3-methyl-5-{[4-(trifluoromethyl)pyrimidin-2-yl]amino}phenyl)pyridin-2-yl]ethane-1,2-diamine] and `Cc1cc(Nc2nccc(C(F)(F)F)n2)cc(-c2ccc(CN)nc2)c1` [Example 2.63, N-{3-[6-(aminomethyl)pyridin-3-yl]-5-methylphenyl}-4-(trifluoromethyl)pyrimidin-2-amine] cannot be ordered by IC50: < 100 nM for the first, < 100 nM for the second.

`Cc1cc(Nc2nccc(C(F)(F)F)n2)cc(-c2ccc(NCC(O)C(F)F)nc2)c1` (centres unmarked) [Example 7.17, 1,1-difluoro-3-{[5-(3-methyl-5-{[4-(trifluoromethyl)pyrimidin-2-yl]amino}phenyl)pyridin-2-yl]amino}propan-2-ol] and `Cc1cc(Nc2nccc(C(F)(F)F)n2)cc(-c2ccc(N[C@@H](C(=O)O)C(C)C)nc2)c1` [Example 7.90, N-[5-(3-methyl-5-{[4-(trifluoromethyl)pyrimidin-2-yl]amino}phenyl)pyridin-2-yl]-D-valine] cannot be ordered by IC50: < 100 nM for the first, < 100 nM for the second.

Compared with `Cc1cc(Nc2nccc(C(F)(F)F)n2)cc(-c2ccc(N3CCC(N4CC(C(=O)O)CC4=O)CC3)nc2)c1` (centres unmarked) [Example 7.151, 1-{1-[5-(3-methyl-5-{[4-(trifluoromethyl)pyrimidin-2-yl]amino}phenyl)pyridin-2-yl]piperidin-4-yl}-5-oxopyrrolidine-3-carboxylic acid], `CC(=O)N1CCN(c2ccc(-c3cc(C)cc(Nc4nccc(C(F)(F)F)n4)c3)cn2)CC1` [Example 7.45, N-{3-[6-(4-acetylpiperazin-1-yl)pyridin-3-yl]-5-methylphenyl}-4-(trifluoromethyl)pyrimidin-2-amine] is higher in IC50: < 100 nM for the first, 100 to 1000 nM for the second. The first is the more potent here.

`Cc1cc(Nc2nccc(C(F)(F)F)n2)cc(-c2ccc(C(F)(F)C(=O)O)nc2)c1` [Example 2.116, difluoro[5-(3-methyl-5-{[4-(trifluoromethyl)pyrimidin-2-yl]amino}phenyl)pyridin-2-yl]acetic acid] and `Cc1cc(Nc2nccc(C(F)(F)F)n2)cc(-c2ccc(N(CCC#N)CC(=O)O)nc2)c1` [Example 7.75, N-(2-cyanoethyl)-N-[5-(3-methyl-5-{[4-(trifluoromethyl)pyrimidin-2-yl]amino}phenyl)pyridin-2-yl]glycine] cannot be ordered by IC50: < 100 nM for the first, < 100 nM for the second.

First: CCOC(=O)CCc1cccc(-c2cc(C)cc(Nc3nccc(C)n3)c2)n1 [Example 2.32, ethyl 3-(6-{3-methyl-5-[(4-methylpyrimidin-2-yl)amino]phenyl}pyridin-2-yl)propanoate]
Second: COc1ccnc(Nc2cc(C)cc(-c3ccc(CCC(=O)O)nc3)c2)n1 [Example 2.83, 3-(5-{3-[(4-methoxypyrimidin-2-yl)amino]-5-methylphenyl}pyridin-2-yl)propanoic acid]
The IC50 of the first is higher: 1000 to 10000 nM for the first, < 100 nM for the second. The second is the more potent here.

`Cc1cc(Nc2nccc(C(F)(F)F)n2)cc(-c2ccc(NC(C)(C)c3nnn[nH]3)nc2)c1` [Example 18.8, N-[3-methyl-5-(6-{[1-methyl-1-(1H-tetrazol-5-yl)ethyl]amino}pyridin-3-yl)phenyl]-4-(trifluoromethyl)pyrimidin-2-amine] and `Cc1cc(Nc2nccc(C(F)(F)F)n2)cc(-c2ccc(NCc3cn(C)cn3)nc2)c1` [Example 7.25, N-[3-methyl-5-(6-{[(1-methyl-1H-imidazol-4-yl)methyl]amino}pyridin-3-yl)phenyl]-4-(trifluoromethyl)pyrimidin-2-amine] cannot be ordered by IC50: < 100 nM for the first, < 100 nM for the second.

`Cc1cc(Nc2nccc(C(F)(F)F)n2)cc(-c2ccc(N3CCC[C@H]3C(N)=O)nc2)c1` [Example 7.57, 1-[5-(3-methyl-5-{[4-(trifluoromethyl)pyrimidin-2-yl]amino}phenyl)pyridin-2-yl]-L-prolinamide] and `CC(=O)Nc1cc(Nc2nccc(C(F)(F)F)n2)cc(-c2ccc(N3CC[C@H]3C(=O)O)nc2)c1` [Example 7.2, (2S)-1-{5-[3-(acetylamino)-5-{[4-(trifluoromethyl)pyrimidin-2-yl]amino}phenyl]pyridin-2-yl}azetidine-2-carboxylic acid] cannot be ordered by IC50: < 100 nM for the first, < 100 nM for the second.

`Cc1cc(Nc2nccc(C(F)(F)F)n2)cc(-c2ccc(C(=O)N3CCS(=O)(=O)CC3)nc2)c1` [Example 16.55, N-(3-{6-[(1,1-dioxidothiomorpholin-4-yl)carbonyl]pyridin-3-yl}-5-methylphenyl)-4-(trifluoromethyl)pyrimidin-2-amine] and `Cc1cc(Nc2nccc(C(F)(F)F)n2)cc(-c2ccc(C(=O)N3CCNC(=O)C3C)nc2)c1` (centres unmarked) [Example 12.5, 3-methyl-4-{[5-(3-methyl-5-{[4-(trifluoromethyl)pyrimidin-2-yl]amino}phenyl)pyridin-2-yl]carbonyl}piperazin-2-one] cannot be ordered by IC50: < 100 nM for the first, < 100 nM for the second.

First: Cc1cc(Nc2nccc(C(F)(F)F)n2)cc(-c2ccnc(NC(C)c3ccccn3)c2)c1 (centres unmarked) [Example 15.34, N-(3-methyl-5-{2-[(1-pyridin-2-ylethyl)amino]pyridin-4-yl}phenyl)-4-(trifluoromethyl)pyrimidin-2-amine]
Second: Cc1cc(Nc2nccc(C(F)(F)F)n2)cc(-c2ccc(NCCc3cnccn3)nc2)c1 [Example 7.18, N-(3-methyl-5-{6-[(2-pyrazin-2-ylethyl)amino]pyridin-3-yl}phenyl)-4-(trifluoromethyl)pyrimidin-2-amine]
The IC50 of the first is higher: 100 to 1000 nM for the first, < 100 nM for the second.

First: Cc1cc(Nc2nccc(C(F)(F)F)n2)cc(-c2ccc(OC3CCOCC3)nc2)c1 [Example 2.61, N-{3-methyl-5-[6-(tetrahydro-2H-pyran-4-yloxy)pyridin-3-yl]phenyl}-4-(trifluoromethyl)pyrimidin-2-amine]
Second: Cc1cc(Nc2nccc(C(F)(F)F)n2)cc(-c2ccc(N[C@H]3CC[C@@H](C(=O)O)CC3)nc2)c1 [Example 7.142, cis-4-{[5-(3-methyl-5-{[4-(trifluoromethyl)pyrimidin-2-yl]amino}phenyl)pyridin-2-yl]amino}cyclohexanecarboxylic acid]
The IC50 of the first is higher: 100 to 1000 nM for the first, < 100 nM for the second.

`O=C(O)[C@@H]1CCN1c1ccc(-c2cccc(Nc3nccc(C(F)(F)F)n3)c2)cn1` [Example 7.126, (2S)-1-[5-(3-{[4-(trifluoromethyl)pyrimidin-2-yl]amino}phenyl)pyridin-2-yl]azetidine-2-carboxylic acid] and `CNC(=O)Nc1cc(Nc2nccc(C(F)(F)F)n2)cc(-c2cccnc2)c1` [Example 6.1, 1-Methyl-3-[3-(pyridin-3-yl)-5-{[4-(trifluoromethyl)pyrimidin-2-yl]amino}phenyl]urea] cannot be ordered by IC50: < 100 nM for the first, < 100 nM for the second.

First: Cc1cc(Nc2nccc(C(F)(F)F)n2)cc(-c2ccc(C(=O)NCC3COCCO3)nc2)c1 (centres unmarked) [Example 16.31]
Second: COC(=O)CS(=O)(=O)Nc1ccc(-c2cc(C)cc(Nc3nccc(C(F)(F)F)n3)c2)cn1 [Example 8.1, Methyl {[5-(3-methyl-5-{[4-(trifluoromethyl)pyrimidin-2-yl]amino}phenyl)pyridin-2-yl]sulfamoyl}acetate]
The IC50 of the first is higher: 100 to 1000 nM for the first, < 100 nM for the second.

`FC(F)(F)c1ccnc(Nc2cc(-c3ccccn3)cc(N3CCOCC3)c2)n1` [Example 1.2, N-(3-morpholin-4-yl-5-pyridin-2-ylphenyl)-4-(trifluoromethyl)pyrimidin-2-amine] and `Cc1cc(Nc2nccc(C(F)(F)F)n2)cc(-c2cc(CCC(=O)O)ccn2)c1` [Example 2.22, 3-[2-(3-methyl-5-{[4-(trifluoromethyl)pyrimidin-2-yl]amino}phenyl)pyridin-4-yl]propanoic acid] cannot be ordered by IC50: < 100 nM for the first, < 100 nM for the second.

First: COc1nc(Nc2cc(C)cc(-c3ccc(N[C@H]4CC[C@H](C(=O)O)CC4)nc3)c2)ncc1Cl [Example 2.118, trans-4-[(5-{3-[(5-chloro-4-methoxypyrimidin-2-yl)amino]-5-methylphenyl}pyridin-2-yl)amino]cyclohexanecarboxylic acid]
Second: Cc1cc(Nc2nccc(C)n2)cc(-c2ccc(C(C)(O)[C@H]3CC[C@H](C(=O)O)CC3)nc2)c1 (single isomer, unassigned) [Example 9.27, cis-4-[(1S or 1R)-1-hydroxy-1-(5-{3-methyl-5-[(4-methylpyrimidin-2-yl)amino]phenyl}pyridin-2-yl)ethyl]cyclohexanecarboxylic acid]
The IC50 of the first is higher: 100 to 1000 nM for the first, < 100 nM for the second.

For `Cc1cc(Nc2nccc(C(F)(F)F)n2)cc(-c2cncc(C3(O)COC3)c2)c1` [Example 9.79, 3-[5-(3-methyl-5-{[4-(trifluoromethyl)pyrimidin-2-yl]amino}phenyl)pyridin-3-yl]oxetan-3-ol], the IC50 was < 100 nM.
